Results taken from US20130023045A1, “INDUCED HEPATIC STEM CELL AND PROCESS FOR PRODUCTION THEREOF, AND APPLICATIONS OF THE CELL” (NATIONAL CANCER CENTER, priority 2010, published 2013).

Test system: induced human hepatic stem cells (AFB1-1, NGC1-2)
Experiment: Long-term passage culture of induced human hepatic stem cells
Format: cell-based
Conditions: addition of 0.05-0.5 μM to the medium, passage culture for six months or longer
Source text: Induced human hepatic stem cells (AFB1-1, NGC1-2) were subjected to passage culture for six months or longer. The exemplary medium used includes mTeSR1 (STEMCELL Technologies/VERITAS), a bFGF-supplemented medium for primate ES/iPS cells (ReproCELL), or bFGF-supplemented ReproStem (ReproCELL). In the case of using MEFs, a collagen- or gelatin-coated culture dish was used, and in the case of not using MEFs, a matrigel-coated culture dish was used.

How did the “proliferation rate and morphology” value turn out when `Cc1cccc(-c2nn(C(=S)Nc3ccccc3)cc2-c2ccnc3ccccc23)n1` [A-83-01] was run?
The value was “highly satisfactory proliferation rate and morphology”.

And the “self-replication of induced human hepatic stem cells” value?
Its value is “useful for self-replication of induced human hepatic stem cells”.
